# Results published in patent publication US20050153894A1, “p21 peptides” (Cyclacel Limited, priority 1999, published 2005).
# Square brackets hold non-standard residues; d marks the D form. Abu = CC[C@H](N)C(=O)O
# Key:
# CDK2/cyclin A = CDK2/cyclin A (Homo sapiens, UniProt P20248); assay: CDK2/cyclin A kinase assay, substrate pRb(773-928); format: biochemical; conditions: for Relative activity Kinase Inhibition: relative to H-His-Ala-Lys-Arg-Arg-Leu-Ile-Phe-NH2 (=1), pRb substrate, [ATP] = 100 μM
# Source text: Reactions were stopped on ice, followed by filtration through p81 filterplates (Whatman Polyfiltronics, Kent, UK).
# Cyclin A = Cyclin A (Homo sapiens, UniProt P20248); assay: Cyclin A binding assay, immobilised biotinyl-Ahx-[…]NH2; conditions: for Relative activity Cyclin A Binding: relative to H-His-Ala-Lys-Arg-Arg-Leu-Ile-Phe-NH2 (=1); for Cyclin A Binding Maximum Inhibition: at 100 μM, no IC50 given
# Cyclin A, sequence (P20248 whole entry): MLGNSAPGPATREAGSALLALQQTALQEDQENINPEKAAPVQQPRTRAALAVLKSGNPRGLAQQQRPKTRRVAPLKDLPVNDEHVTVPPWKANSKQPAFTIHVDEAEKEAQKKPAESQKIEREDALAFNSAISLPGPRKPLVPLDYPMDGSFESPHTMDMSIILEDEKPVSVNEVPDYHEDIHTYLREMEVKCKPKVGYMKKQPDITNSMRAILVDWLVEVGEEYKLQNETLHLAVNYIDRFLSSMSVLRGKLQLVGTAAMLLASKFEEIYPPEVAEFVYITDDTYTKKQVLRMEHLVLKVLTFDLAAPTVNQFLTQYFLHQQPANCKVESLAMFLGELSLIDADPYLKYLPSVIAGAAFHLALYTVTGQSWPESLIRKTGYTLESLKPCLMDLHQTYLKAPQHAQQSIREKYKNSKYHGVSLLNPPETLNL
# Procedure: This was added to each well (100 μL). The plate was incubated for 1 h at room temperature with constant shaking. The plate was washed once quickly with TBS/BSA buffer (200 μL), followed by three more washes with TBS/BSA buffer (200 μL) for 5 min each. Serial dilutions of test peptides were prepared in a new plate (50 μL in each well). Cyclin A was diluted to 5 μg/50 μL with TBS/BSA buffer and this was then added to each well (50 μL). The solutions were mixed thoroughly with a pipette (5-6 times), before being incubated for 30 min at room temperature. This reaction mixture was then transferred to the biotinylated peptide: streptavidin-coated plate and incubated for 1 h at room temperature with constant shaking. The plate was washed once quickly with TBS/BSA buffer (200 μL), followed by three more washes with TBS/BSA buffer (200 μL) for 5 min each. The cyclin A antibody (Santa Cruz polyclonal) solution was diluted 1:200 with TBS/BSA buffer and this was then added to each well of the plate (100 μL. The plate was incubated for 1 h at room temperature with constant shaking. The plate was washed once quickly with TBS/BSA buffer (200 μl), followed by three more washes with TBS/BSA buffer (200 μL) for 5 min each. The anti-rabbit secondary antibody (goat anti-rabbit IgG peroxidase conjugate) was diluted 1:10,000 with TBS/BSA and this was then added to each well of the plate (100 μL). The plate was incubated for 1 h at room temperature with constant shaking. The plate was washed once quickly with TBS/BSA buffer (200 μL), followed by three more washes with TBS/BSA buffer (200 μL) for 5 min each. To each well was added the TMB-ELISA reagent (Pierce 1-Step™ Turbo TMB-ELISA; 100 μL) and the plate incubated for 1 min with constant shaking. The reaction was then quenched by the addition of 2 M aqueous H2SO4 (100 μL, each well). The UV absorbance of the each solution was measured spectrophotometrically at 450 nm. IC50 values were calculated from dose-response curves.
# CDK4/Cyclin D1 = target: T1, CDK4/Cyclin D1 (Homo sapiens, UniProt P24385); assay: CDK4/Cyclin D1 kinase assay, phosphorylation of GST-Rb; format: biochemical
# T1 construct: made in house; host or cells: CDK4: Sf9 insect cells (baculovirus)
# T1 sequence (P24385 whole entry): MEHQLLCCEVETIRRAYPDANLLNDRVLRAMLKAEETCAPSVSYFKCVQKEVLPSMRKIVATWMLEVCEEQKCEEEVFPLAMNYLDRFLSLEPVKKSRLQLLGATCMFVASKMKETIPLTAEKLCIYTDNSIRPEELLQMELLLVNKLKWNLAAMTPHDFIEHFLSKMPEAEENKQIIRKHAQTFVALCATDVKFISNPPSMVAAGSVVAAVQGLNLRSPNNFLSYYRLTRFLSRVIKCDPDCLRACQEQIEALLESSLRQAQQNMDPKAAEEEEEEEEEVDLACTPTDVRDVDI
# T1 sequence (P11802 whole entry partner): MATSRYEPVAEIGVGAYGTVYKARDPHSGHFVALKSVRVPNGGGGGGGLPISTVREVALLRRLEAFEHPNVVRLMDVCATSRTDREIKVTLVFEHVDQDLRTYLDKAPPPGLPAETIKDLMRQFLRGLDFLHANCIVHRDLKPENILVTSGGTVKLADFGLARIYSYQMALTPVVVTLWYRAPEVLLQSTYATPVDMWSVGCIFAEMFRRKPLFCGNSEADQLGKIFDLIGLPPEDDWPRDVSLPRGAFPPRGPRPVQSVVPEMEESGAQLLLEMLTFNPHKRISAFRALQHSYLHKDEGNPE
# Procedure: (§1) The phosphorylation reaction mixture (total volume 40 μl) consisted of 50 mM HEPES pH 7.4, 20 mM MgCl2, 5 mM EGTA, 2 mM DTT, 20 mM β-glycerophosphate, 2 mM NaF, 1 mM Na3VO4, Protease Inhibitors Cocktail (Sigma, see above), BSA 0.5 mg/ml, 1 μg purified enzyme complex, 10 μl of GST-Rb-Sepharose beads, 100 μM ATP, 0.2 μCi ^32P-ATP. The reaction was carried out for 30 min at 30° C. at constant shaking. At the end of this period 100 μl of 50 mM HEPES, pH 7.4 and 1 mM ATP were added to each well and the total volume was transferred onto GFC filtered plate. The plate was washed 5 times with 200 μl of 50 mM HEPES, pH 7.4 and 1 mM ATP. To each well were added 50 μl scintillant liquid and the radioactivity of the samples was measured on Scintilation counter (Topcount, HP). The IC50 values of different peptides were calculated using GraFit software.
# Peptides were synthesized as described above. Cyclin D1 was expressed in E coli BL21(DE3) using PET expression vector and purified from the inclusion bodies. After refolding Cyclin D1 was cross-linked on SulfoLink agarose support (PIERCE). CDK4-6×His was expressed in Sf9 insect cells infected with the appropriate baculovirus construct and purified by metal-affinity chromatography (Quiagen). […] CDK4/Cyclin D1 phosphorilation of Rb was determined by incorporation of radio-labeled phosphate in GST-Rb in 96-well format kinase assay. […] The reaction was carried out for 30 min at 30 C at constant shaking. The GST-Rb-Sepharose beads were washed with 50 mM HEPES and 1 mM ATP and the radioactivity was measured on Scintillation counter (Topcount, HP)
# CDK2/Cyclin E = target: T2, CDK2/Cyclin E (Homo sapiens, UniProt P24864); assay: CDK2/Cyclin E kinase assay, phosphorylation of GST-Rb; format: biochemical; conditions: for Kinase Inhibition Cyclin E/CDK2 % Inhibition / Kinase Inhibition Cyclin E/CDK2 IC30: GST-pRb substrate, [ATP] = 100 μM
# T2 construct: 6xHis; made in house; host or cells: Sf9 insect cells (baculovirus co-expression)
# Procedure: as §1
# [1] = GST-pRb substrate, [ATP] = 100 μM
Kinase Inhibition Cyclin D1/CDK4 % Inhibition (CDK4/Cyclin D1; [1]) [%],Kinase Inhibition Cyclin E/CDK2 % Inhibition (CDK2/Cyclin E) [%],Kinase Inhibition Cyclin E/CDK2 IC30 (CDK2/Cyclin E) [µM],Kinase Inhibition Cyclin D1/CDK4 IC30 (CDK4/Cyclin D1; [1]) [µM],Compound,other results
,,,,H-His-Val-Lys-Arg-Arg-Leu-Ile Phe-NH2 (H-HVKRRLIF-NH2),Relative activity Kinase Inhibition (CDK2/cyclin A; Ala153 substitutions): 2; Relative activity Cyclin A Binding (Cyclin A; Ala153 substitutions): 1.7
,,,,H-His-Ala-Abu-Arg-Arg-Leu-Ile Phe-NH2 (H-HA[Abu]RRLIF-NH2; SMILES CC[C@H](NC(=O)[C@H](C)NC(=O)[C@@H](N)Cc1c[nH]cn1)C(=O)N[C@@H](CCCNC(=N)N)C(=O)N[C@@H](CCCNC(=N)N)C(=O)N[C@@H](CC(C)C)C(=O)N[C@H](C(=O)N[C@@H](Cc1ccccc1)C(N)=O)[C@@H](C)CC),Relative activity Kinase Inhibition (CDK2/cyclin A; Lys154 substitutions): 0.8; Relative activity Cyclin A Binding (Cyclin A; Lys154 substitutions): 0.2
,,,,H-His Ala-Lys-Arg-Pro-Leu-Ile Phe-NH2 (H-HAKRPLIF-NH2),Relative activity Kinase Inhibition (CDK2/cyclin A; Arg156 substitutions): <0.1; Relative activity Cyclin A Binding (Cyclin A; Arg156 substitutions): <0.1
,,,,CC[C@H](C)[C@H](NC(=O)[C@H](CC(C)C)NC(=O)[C@H](CCCNC(=N)N)NC(=O)[C@H](CCCNC(=N)N)NC(=O)[C@H](CCCCN)NC(=O)[C@H](CO)NC(=O)[C@@H](N)Cc1c[nH]cn1)C(=O)N[C@@H](Cc1ccccc1)C(N)=O,"inhibition at 100 µM (CDK4/Cyclin D1; [1]): 72%; IC50 (CDK4/Cyclin D1; phosphorylation of pRb, read-out: Kinase Inhibition Cyclin D1/CDK4 IC50): 21 µM; IC50 (CDK2/Cyclin E; phosphorylation of pRb, read-out: Kinase Inhibition Cyclin E/CDK2 IC50): 3.4 µM; Kinase Inhibition Cyclin A/CDK2 % Inhibition (CDK2/cyclin A; phosphorylation of pRb): 80%; IC50 (CDK2/cyclin A; phosphorylation of pRb, read-out: Kinase Inhibition Cyclin A/CDK2 IC50): 3.4 µM"
,,,,24 (FYHSKRRLIFS) [compound 24],Cyclin A Binding Maximum Inhibition (Cyclin A): 50(at 100 (μM) %
10,30,>200,,YHSKRRL,
10,50,200,,DFYHSKRRL,
20,35,,,DFYHSKRRLI (H-DFYHSKRRLI-NH2),
30,30,,,DFYHSKRRAIFS (H-DFYHSKRRAIFS-NH2),
20,45,,,FYHSKRRLI (H-FYHSKRRLI-NH2),
10,40,,,DFYHSKRR (H-DFYHSKRR-NH2),
60,70,,40,DFYHSKRRLIFA,
15,45,>200,,YHSKRRLI,
70,80,,19 ± 3,FYHSKRRLIF,
30,25,,,DFYHSKARLIFS (H-DFYHSKARLIFS-NH2),
76,85,5.9 ± 0.4,37 ± 6,DAYHSKRRLIFS,
50,80,12.9 ± 2.4,200,DFYHSARRLIFS,
20,48,>200,,FYHSKRRL,
60,80,,45 ± 10,YHSKRRLIFSKR,

Kinase Inhibition Cyclin D1/CDK4 % Inhibition (CDK4/Cyclin D1; [1]) [%],Kinase Inhibition Cyclin E/CDK2 % Inhibition (CDK2/Cyclin E) [%],Kinase Inhibition Cyclin E/CDK2 IC30 (CDK2/Cyclin E) [µM],Kinase Inhibition Cyclin D1/CDK4 IC30 (CDK4/Cyclin D1; [1]) [µM],Compound,other results
18,40,,,SMTDFYHSKRRL (H-SMTDFYHSKRRL-NH2),
30,35,,,TSMTDFYHSKRR (H-TSMTDFYHSKRR-NH2),
40,70,46 ± 33,,SKRRLIFSKRKP,
65,80,,32 ± 6,HSKRRLIFS,
70,80,7 ± 2,16 ± 1,YHSKRRLIF,
35,20,,,DFYHSKRRLIAS (H-DFYHSKRRLIAS-NH2),
72,80,,>200,KRRLIF,
72,85,,15 ± 3,TDFYHSKRRLIF,
,,,,30 (SKRRLIF) [compound 30],Cyclin A Binding Maximum Inhibition (Cyclin A): 20(at 100 (μM) %
20,45,>200,,FYHSKRR,
10,35,,,HSKRRLI (H-HSKRRLI-NH2),
30,70,30 ± 8,,DFYHSKRALIFS,
80,90,,34 ± 6,HSKRRLIFSKRK,
72,80,7.7 ± 0.5,54,SKRRLIF,
61,80,14 ± 3,53 ± 20,DFYHSKRRLAFS,
70,80,7.3 ± 0.8,20 ± 1,YHSKRRLIFS,
70,75,2 ± 0.2,13 ± 2,DFYHSKRRLIF,
56,80,5.3 ± 0.6,121 ± 31,DFAHSKRRLIFS,

Compound,Kinase Inhibition Cyclin D1/CDK4 % Inhibition (CDK4/Cyclin D1; [1]) [%],Kinase Inhibition Cyclin E/CDK2 % Inhibition (CDK2/Cyclin E) [%],Kinase Inhibition Cyclin E/CDK2 IC30 (CDK2/Cyclin E) [µM],Kinase Inhibition Cyclin D1/CDK4 IC30 (CDK4/Cyclin D1; [1]) [µM],other results
MTDFYHSKRRLI (H-MTDFYHSKRRLI-NH2),11,35,,,
